Experimental data published in the supplement of paper PMC10307832.

How the values were obtained:
Experiment in all cases: relative viability (nuclei count vs DMSO), 5 days (fraction); higher = more cells survive
VE-821 + Navitoclax = compound: CS(=O)(=O)c1ccc(-c2cnc(N)c(C(=O)Nc3ccccc3)n2)cc1 [VE-821] + CC1(C)CCC(c2ccc(Cl)cc2)=C(CN2CCN(c3ccc(C(=O)NS(=O)(=O)c4ccc(N[C@H](CCN5CCOCC5)CSc5ccccc5)c(S(=O)(=O)C(F)(F)F)c4)cc3)CC2)C1 [Navitoclax] (partner 0.5 µM)
In short: (§1)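 Nuclei were stained with Hoechst during a one-step fixation (final 0.05% Triton X-100, 1% formaldehyde, 1 ug/ml Hoechst) carried out 5 days after dosing, then counted on 4× images. The cells, lung cancer lines in 1536-well plates, had been dosed by pin tool the day after seeding with one drug alone or a fixed anchor-drug dose plus five library-drug doses (not always all listed) in √10 steps. Relative viability is the nuclei count in treated wells divided by that in vehicle wells, and each value is the median of duplicate plates.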

Vismodegib + Luminespib = compound: CS(=O)(=O)c1ccc(C(=O)Nc2ccc(Cl)c(-c3ccccn3)c2)c(Cl)c1 [Vismodegib] + CCNC(=O)c1noc(-c2cc(C(C)C)c(O)cc2O)c1-c1ccc(CN2CCOCC2)cc1 [Luminespib] (partner 0.01 µM)
In short: as §1

Vismodegib + Pictilisib = compound: CS(=O)(=O)c1ccc(C(=O)Nc2ccc(Cl)c(-c3ccccn3)c2)c(Cl)c1 [Vismodegib] + CS(=O)(=O)N1CCN(Cc2cc3nc(-c4cccc5[nH]ncc45)nc(N4CCOCC4)c3s2)CC1 [Pictilisib] (partner 1 µM)
In short: as §1

Row | Cell Line | relative viability (VE-821 + Navitoclax; first compound 0.08 µM) | relative viability (VE-821 + Navitoclax; first compound 0.253 µM) | relative viability (VE-821 + Navitoclax; first compound 0.8 µM) | relative viability (VE-821 + Navitoclax; first compound 2.53 µM) | relative viability (VE-821 + Navitoclax; first compound 8 µM) | relative viability (Vismodegib + Luminespib; first compound 0.08 µM) | relative viability (Vismodegib + Luminespib; first compound 0.253 µM) | relative viability (Vismodegib + Luminespib; first compound 0.8 µM) | relative viability (Vismodegib + Luminespib; first compound 2.53 µM) | relative viability (Vismodegib + Luminespib; first compound 8 µM) | relative viability (Vismodegib + Pictilisib; first compound 0.08 µM) | relative viability (Vismodegib + Pictilisib; first compound 0.253 µM) | relative viability (Vismodegib + Pictilisib; first compound 0.8 µM) | relative viability (Vismodegib + Pictilisib; first compound 2.53 µM) | relative viability (Vismodegib + Pictilisib; first compound 8 µM)
1 | 201T | 1.23 | 1.2 | 1.21 | 1.32 | 1.12 | 1.02 | 1 | 1.07 | 1.11 | 0.968 | 0.712 | 0.67 | 0.641 | 0.673 | 0.66
2 | A549 | 1.48 | 1.21 | 1.18 | 1.04 | 0.544 | – | – | – | – | – | 0.507 | 0.465 | 0.478 | 0.56 | 0.432
3 | A-427 | 0.928 | 0.945 | 1.04 | 0.981 | 0.625 | 0.912 | 0.831 | 0.856 | 0.876 | 0.824 | 0.757 | 0.701 | 0.635 | 0.694 | 0.634
4 | ABC-1 | – | – | – | – | – | 0.577 | 0.381 | 0.551 | 0.672 | 0.405 | 0.602 | 0.841 | 0.712 | 0.757 | 0.772
5 | BEN | 0.0647 | 0.0527 | 0.059 | 0.0551 | 0.0693 | 0.363 | 0.293 | 0.475 | 0.244 | 0.326 | 0.614 | 0.602 | 0.537 | 0.541 | 0.583
6 | CAL-12T | 1.21 | 1.26 | 1.22 | 1.05 | 1.1 | 0.531 | 0.366 | 0.436 | 0.503 | 0.575 | – | 0.509 | 0.263 | 0.241 | 0.36
7 | COR-L23 | 1.05 | 1.01 | 1.23 | 1.15 | 0.894 | 0.672 | 0.779 | 0.586 | 0.675 | 0.75 | 0.803 | 0.658 | 0.714 | 0.675 | 0.786
8 | COR-L 105 | 0.797 | 0.683 | 0.651 | 0.606 | 0.725 | 0.657 | 0.785 | 0.92 | 0.973 | 0.773 | 0.383 | 0.371 | 0.445 | 0.401 | 0.453
9 | Calu-6 | 0.845 | 0.828 | 0.791 | 0.648 | 0.35 | – | – | – | – | – | 0.934 | 0.915 | 0.886 | 0.918 | 0.859
10 | ChaGo-K-1 | 0.929 | 1.06 | 1.22 | 1.03 | 0.594 | 0.565 | 0.622 | 0.598 | 0.525 | 0.516 | 0.784 | 0.851 | 0.623 | 0.666 | 0.709
11 | EBC-1 | 0.44 | 0.412 | 0.399 | 0.254 | 0.221 | – | – | – | – | – | 0.38 | 0.433 | 0.386 | 0.426 | 0.433
12 | EKVX | 1.17 | 0.975 | 0.632 | 1.01 | 0.907 | 0.749 | 0.797 | 0.929 | 0.864 | 0.896 | 0.47 | 0.462 | 0.391 | 0.355 | 0.395
13 | EMC-BAC-2 | 1.23 | 1.12 | 1.2 | 1.21 | 1.16 | 1.14 | 1.07 | 1.22 | 1.12 | 1.21 | 0.541 | 0.516 | 0.588 | 0.529 | 0.461
14 | EPLC-272H | 1.52 | 1.13 | 1.33 | 1.12 | 1.35 | 0.298 | 0.224 | 0.263 | 0.235 | 0.442 | 0.319 | 0.382 | 0.308 | 0.317 | 0.293
15 | H3255 | 0.563 | 0.485 | 0.571 | 0.56 | 0.425 | 0.798 | 0.996 | 0.799 | 0.818 | 0.857 | 0.483 | 0.481 | 0.479 | 0.471 | 0.471
16 | HARA | 1.23 | 1.13 | 1.09 | 1.15 | 0.99 | 0.699 | 0.843 | 0.888 | 0.655 | 0.779 | 0.472 | 0.423 | 0.417 | 0.396 | 0.448
17 | HCC-15 | 0.813 | 0.706 | 0.778 | 0.772 | 0.676 | 0.17 | 0.267 | 0.254 | 0.508 | 0.29 | 0.754 | 0.758 | 0.711 | 0.748 | 0.597
18 | HCC-44 | 1.01 | 0.992 | 0.975 | 1.19 | 1.08 | 1 | 0.966 | 1 | 0.979 | 1.05 | 0.611 | 0.657 | 0.546 | 0.474 | 0.668
19 | HCC-78 | 0.831 | 0.783 | 0.707 | 1.04 | 0.654 | – | – | – | – | – | 0.19 | 0.189 | 0.176 | 0.206 | 0.234
20 | HCC-366 | 1.34 | 1.02 | 0.925 | 1.02 | 0.0801 | – | – | – | – | – | 0.16 | 0.17 | 0.148 | 0.137 | 0.131
21 | HCC-827 | 1.05 | 1.02 | 1.07 | 1.02 | 1.01 | 0.658 | 0.762 | 0.691 | 0.589 | 0.733 | 1.22 | 1.06 | 0.834 | 0.854 | 0.97
22 | HOP-62 | 1.22 | 0.91 | 1.16 | 1.17 | 1.12 | 0.916 | 0.914 | 0.981 | 0.93 | 0.877 | 0.751 | 0.703 | 0.759 | 0.815 | 0.656
23 | IA-LM | 0.855 | 0.71 | 0.755 | 0.92 | 0.527 | – | – | – | – | – | 0.363 | 0.354 | 0.277 | 0.281 | 0.379
24 | LC-2-ad | 0.587 | 0.413 | 0.566 | 0.622 | 0.291 | 1.01 | 0.957 | 0.975 | 0.955 | 1.06 | 0.49 | 0.503 | 0.513 | 0.643 | 0.421
